The source made the active and inactive calls. The rule behind the calls is not given here.
Each molecule was assayed against Ubiquitin carboxyl-terminal hydrolase 10 (Homo sapiens) (UniProt Q14694) (assay: primary hit verification, biochemical, ubiquitin-specific protease 10 deubiquitylase inhibitors, concentration-effect titration (AID 1645863;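 note: potency values describe inhibition of USP10 cleavage of a fluorogenic ubiquitin substrate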)). Conditions: USP10 deubiquitinase enzymatic assay.
Sequence of Ubiquitin carboxyl-terminal hydrolase 10 (Homo sapiens) (Q14694 whole entry, looked up): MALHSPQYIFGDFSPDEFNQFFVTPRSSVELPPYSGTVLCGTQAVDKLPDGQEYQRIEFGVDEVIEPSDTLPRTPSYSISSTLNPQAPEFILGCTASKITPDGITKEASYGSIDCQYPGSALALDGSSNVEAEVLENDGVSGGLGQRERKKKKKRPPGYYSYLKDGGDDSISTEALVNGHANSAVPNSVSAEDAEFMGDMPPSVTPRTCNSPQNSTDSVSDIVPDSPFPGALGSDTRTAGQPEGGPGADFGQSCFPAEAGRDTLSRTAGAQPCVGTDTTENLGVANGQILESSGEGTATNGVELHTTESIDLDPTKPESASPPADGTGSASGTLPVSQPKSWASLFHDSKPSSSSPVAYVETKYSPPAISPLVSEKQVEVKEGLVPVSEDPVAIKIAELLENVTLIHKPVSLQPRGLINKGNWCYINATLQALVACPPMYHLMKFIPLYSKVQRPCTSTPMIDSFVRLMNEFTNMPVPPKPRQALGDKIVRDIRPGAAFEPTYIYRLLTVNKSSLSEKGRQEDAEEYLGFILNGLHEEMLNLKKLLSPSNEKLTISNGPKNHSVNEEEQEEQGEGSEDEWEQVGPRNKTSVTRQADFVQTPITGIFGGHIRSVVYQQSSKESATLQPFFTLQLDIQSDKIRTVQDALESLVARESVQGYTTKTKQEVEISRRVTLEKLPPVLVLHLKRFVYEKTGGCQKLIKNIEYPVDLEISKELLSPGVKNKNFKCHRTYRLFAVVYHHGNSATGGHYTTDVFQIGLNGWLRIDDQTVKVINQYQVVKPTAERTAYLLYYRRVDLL
For `O=C(Nc1ccc(C(F)(F)F)cc1)C1CC(=O)N(c2ccc3c(c2)OCCO3)C1` (configuration not stated), the IC50 was > 40 µM (inactive).
`O=[N+]([O-])c1ccc2c(c1)nc1n2CCN(Cc2ccco2)C1` was tested, and the IC50 was > 40 µM (inactive).
`OC1CCCN(c2ncc(-c3cnccn3)c(-c3cccs3)n2)C1` (configuration not stated) was tested, and the IC50 was > 40 µM (inactive).
`Cc1ccccc1-c1noc(-c2cn(Cc3ccc(NC(=O)Cc4ccccc4)cc3)cn2)n1` was tested, and the IC50 was > 40 µM (inactive).
With `O=C(NC(Cc1ccccc1)c1nc2ccccc2[nH]1)C1CC1` (configuration not stated) the IC50 was > 40 µM (inactive).
In the case of `CC(=O)c1cccc(NC(=O)COC(=O)c2sc3cc(F)ccc3c2Cl)c1`, the IC50 is reported as > 40 µM (inactive).
`Cc1ccc(C(=O)NC(C)c2ccccc2)cc1NC(=O)c1nsc2ccccc12` (configuration not stated) gave an IC50 of 27.9 µM.
`Cc1cccc(NC(=O)Cn2c(=O)n(-c3cc(C)cc(C)c3)c(=O)c3sccc32)c1` was tested, and the IC50 was > 40 µM (inactive).
With `CCn1cc2c(n1)c(=O)n(Cc1ccc(C)cc1)c(=O)n2CC(=O)Nc1ccc(F)cc1` the IC50 was > 40 µM (inactive).
For `COC(=O)c1ccc2c(=O)n(CCCCCC(=O)NCCc3ccccc3Cl)c(=O)[nH]c2c1`, the IC50 was > 40 µM (inactive).
Work on `CCOC(=O)c1cc2c(ccn2-c2ccc(F)cc2)n1CC(=O)Nc1ccc2c(c1)OCCO2` yielded an IC50 of 30.3 µM.
For `O=C(c1cc(S(=O)(=O)Nc2ccc(Cl)cc2)ccc1Cl)N1CCCc2ccccc21`, the IC50 was > 40 µM (inactive).
With `Cc1c(-c2nc(-c3ccccc3Cl)no2)nnn1-c1cccc(F)c1` the IC50 was > 40 µM (inactive).
`CCn1cc2c(n1)c(=O)n(Cc1ccccc1)c(=O)n2CC(=O)Nc1ccc(OC)cc1` showed an IC50 of 35.9 µM.
`CCc1cccc(C)c1NC(=O)Cn1nc2ccc(C(=O)NCc3ccccc3)cn2c1=O` was tested, and the IC50 was 29.3 µM.
`COc1ccc(NC(=O)Cn2cc(C(=O)c3ccc(F)cc3)c(=O)c3cc(C)ccc32)cc1OC` was tested, and the IC50 was > 40 µM (inactive).
`CN(C)[C@@H]1C(=O)C(C(N)=O)=C(O)[C@@]2(O)C(=O)C3=C(O)c4c(O)cccc4[C@@](C)(O)C3[C@H](O)[C@@H]12` (some centres not stated) showed an IC50 of 1.1 µM.
`Cc1ccc(S(=O)(=O)Nc2ccccc2C(=O)Nc2nc3ccc(Br)cc3s2)cc1` was tested, and the IC50 was > 40 µM (inactive).
`CCN(Cc1ccccc1)C(=O)Cn1ccc2ccn(C)c2c1=O` was tested, and the IC50 was > 40 µM (inactive).
`O=C(NCc1ccco1)c1ccc(Cn2c(SCc3ccccc3)nc3ccncc32)cc1` was tested, and the IC50 was > 40 µM (inactive).
`Cc1cccc(C)c1NC(=O)Cn1c(=O)n(CCCCC(=O)NCc2ccc3c(c2)OCO3)c(=O)c2ccccc21` gave an IC50 of 22.3 µM.
Molecule `COc1ccc(-c2cc(-c3ccc(F)cc3)[nH]c(=O)c2C#N)cc1` has an IC50 of 18.3 µM.
`O=C(Nc1ccc(F)cc1)Nc1ccccc1OCc1cc(=O)n2ccccc2n1` was tested, and the IC50 was 26.3 µM.
With `CCOc1ccc(-c2nc(SCC(=O)Nc3cccc(C)c3)n3[nH]c(=O)cc3n2)cc1` the IC50 was > 40 µM (inactive).
With `N=C1/C(=C/c2cn(Cc3ccccc3F)c3ccccc23)C(=O)N=C2SC(C(F)(F)F)=NN12` the IC50 was “inactive”.
With `CC(C)(C)C(=O)C1C2C(=O)N(c3ccc4c(c3)OCO4)C(=O)C2C2c3ccccc3C=CN12` (configuration not stated) the IC50 was > 40 µM (inactive).
`Cc1ccnc(Nc2nc(-c3ccccc3)c3cc(Cl)ccc3n2)n1` showed an IC50 of 14.7 µM.
For `O=c1c2[nH]c3ccccc3c2ncn1CCC1=CCCCC1`, the IC50 was > 40 µM (inactive).
Molecule `COc1cc(NC(=O)Cc2ccccc2)ccc1NC(=O)c1cc2ccccc2o1` has an IC50 of 28.1 µM.
`Cc1ccc(C(=O)c2cn(CC(=O)Nc3ccc4c(c3)OCO4)c3ccccc3c2=O)cc1` showed an IC50 of 16.4 µM.
For `Cn1cc(C(=O)NCC2COc3ccccc3O2)c(=O)c2cc(S(=O)(=O)N3CCCCC3)ccc21` (configuration not stated), the IC50 was > 40 µM (inactive).
In the case of `COc1ccc(CNc2ccc(C(=O)OCc3ccccc3F)cc2S(=O)(=O)Nc2cccc(OC)c2)cc1`, the IC50 is reported as > 40 µM (inactive).
`COc1ccc(NC(=O)Cn2c(C)cc(=O)n3nc(-c4cccc(C)c4)nc23)cc1` gave an IC50 of 37 µM.
Work on `O=C(CCCCn1c(=O)c2ccccc2n(CC(=O)Nc2ccc3c(c2)OCCO3)c1=O)NCc1ccco1` yielded an IC50 of 25.2 µM.
`COc1cccc(NC(=O)C(Sc2cccc(NC(=O)c3ccccc3F)c2)c2ccccc2)c1` (configuration not stated) was tested, and the IC50 was 33.6 µM.
In the case of `COc1ccc(OC)c2c(C)cc(N3CC(C)CC(C)C3)nc12` (configuration not stated), the IC50 is reported as > 40 µM (inactive).
In the case of `CC(CCc1ccccc1)NC(=O)Cn1c(=O)c2cccn2c2ccccc21` (configuration not stated), the IC50 is reported as > 40 µM (inactive).
In the case of `CN(C)S(=O)(=O)c1ccc(NC(=O)CN2CCCc3ccccc32)cc1`, the IC50 is reported as > 40 µM (inactive).
`O=C1CC(c2nc3ccccc3n2CCOc2ccc(Cl)cc2)CN1c1ccccc1` (configuration not stated) gave an IC50 of 39.3 µM.
`Cc1cccc(N2C(=O)/C(=C\c3ccc4c(c3)OCCO4)c3ccccc3C2=O)c1` was tested, and the IC50 was > 40 µM (inactive).
With `O=C(CCSc1nnnn1-c1ccccc1)Nc1cc(C(F)(F)F)ccc1Cl` the IC50 was > 40 µM (inactive).
`Cc1ccnc(NS(=O)(=O)c2ccc(NC(=O)c3ccc(S(=O)(=O)N(C)Cc4ccccc4)cc3)cc2)n1` was tested, and the IC50 was 35.4 µM.
For `O=C(Nc1cccc([N+](=O)[O-])c1)Nc1ccc2snnc2c1`, the IC50 was > 40 µM (inactive).
Molecule `O=C1CSC(c2ccc3c(c2)OCO3)c2c(n(C3CCCCCC3)[nH]c2=O)N1` (configuration not stated) has an IC50 of 36.8 µM.
For `O=C(CCc1nnc2n(Cc3ccccc3Cl)c(=O)c3ccccc3n12)NCc1ccccc1`, the IC50 was > 40 µM (inactive).
`O=C(Cn1c(=O)c2sccc2n(Cc2ccc([N+](=O)[O-])cc2)c1=O)NCCc1ccccc1` was tested, and the IC50 was > 40 µM (inactive).
Work on `C[C@H](NC(=O)Cc1ccccc1F)c1nc2cc(-c3ccccc3F)ncn2n1` yielded an IC50 of 36.4 µM.
For `Cn1cc(NC(=O)Nc2cccc3ccccc23)c2ccccc21`, the IC50 was > 40 µM (inactive).
`Cn1nc(Cl)c(Cl)c1Oc1ccc(S(=O)(=O)Nc2ccc(Oc3ccc(C(F)(F)F)cn3)c(Cl)c2)cc1` gave an IC50 of 13 µM.
For `Cc1cc(N2CCN(c3ncccn3)CC2)nc2ccc(NC(=O)Cn3nc([N+](=O)[O-])c(Br)c3C)cc12`, the IC50 was > 40 µM (inactive).
`O=C(Cn1c(=O)[nH]c2c(-c3ccccc3)c[nH]c2c1=O)NCc1ccccc1Cl` was tested, and the IC50 was > 40 µM (inactive).
Work on `O=C(/C=C/c1ccco1)c1cccc([N+](=O)[O-])c1` yielded an IC50 of 35.1 µM.
Molecule `NC(=O)c1ccccc1NC(=O)COc1ccc2c(c1)oc(=O)c1ccccc12` has an IC50 of 5.75 µM.
`COC(=O)c1ccc(C2c3[nH]c4ccccc4c3C[C@@H]3C(=O)N(c4ccc5c(c4)OCCO5)C(=O)N23)cc1` (some centres not stated) was tested, and the IC50 was > 40 µM (inactive).
`Cc1cc(NC(=O)c2cc(-c3cccnc3)n[nH]2)ccc1Br` gave an IC50 of 28.6 µM.
For `N#Cc1cc(C(=O)c2cc(Cl)ccc2O)cn(-c2ccccn2)c1=O`, the IC50 was > 40 µM (inactive).
In the case of `CC(C)=CCCC1(C)C=Cc2c(O)c3c(c(CC=C(C)C)c2O1)OC12C(=CC4CC1C(C)(C)OC2(C/C=C(/C)C(=O)O)C4=O)C3=O` (configuration not stated), the IC50 is reported as 9.59 µM.
`O=C(/C=C/c1cccc([N+](=O)[O-])c1)N1CCc2ccccc21` was tested, and the IC50 was > 40 µM (inactive).
Molecule `CCCCN1Cc2sc(NC(=O)Nc3ccccc3C)nc2C1=O` has an IC50 of 15.6 µM.
`O=C(COc1ccc(C2CCCCC2)cc1)Nc1ccc(-c2nn3cnnc3s2)cc1` was tested, and the IC50 was > 40 µM (inactive).
In the case of `O=C(Cn1cnc(-c2noc(-c3ccc(F)cc3)n2)c1)Nc1ccccc1F`, the IC50 is reported as > 40 µM (inactive).
In the case of `COc1ccc(-c2ccc(SCC(=O)Nc3ccc(F)cc3)nn2)cc1OC`, the IC50 is reported as > 40 µM (inactive).
Work on `CCn1cc2c(n1)c(=O)n(Cc1ccccc1)c(=O)n2CC(=O)Nc1ccc(C)cc1C` yielded an IC50 of 12.1 µM.
With `COc1cccc(NC(=O)c2oc3ccccc3c2NC(=O)COc2cccc(OC)c2)c1` the IC50 was > 40 µM (inactive).
Work on `O=C(Nc1ccccc1Cc1ccccc1)c1nc2n(n1)-c1ccccc1S(=O)(=O)N2` yielded an IC50 of 25.3 µM.
`Cn1c(=O)n(CCc2ccccc2)c(=O)c2c1nc1n2CCN1Cc1ccccc1` was tested, and the IC50 was > 40 µM (inactive).
With `COc1cc(O)cc2c1C(=O)OC(C)CCCCCCC2` (configuration not stated) the IC50 was 29.5 µM.
With `Cc1cccn2c(=O)c3cc(C#N)c(=O)n(-c4cccc(C(F)(F)F)c4)c3nc12` the IC50 was > 40 µM (inactive).
`Cc1csc(NC(=O)c2c[nH]c3ccc(F)cc3c2=O)n1` was tested, and the IC50 was > 40 µM (inactive).
For `CCCCNC(=O)C1Sc2nnc(-c3ccccc3)n2NC1c1ccccc1` (configuration not stated), the IC50 was > 40 µM (inactive).
With `Cn1c(C(=O)NCc2ccccn2)cc2c(=O)[nH]c3ccccc3c21` the IC50 was > 40 µM (inactive).
With `CCCn1c(=O)c(-c2ccc(C(=O)NCc3ccc(OC)cc3)cc2)nc2cccnc21` the IC50 was > 40 µM (inactive).
`CS(=O)(=O)c1cccc(-c2nnc(NC(=O)c3ccc(Cc4ccccc4)cc3)o2)c1` was tested, and the IC50 was > 40 µM (inactive).
For `C=C/C(C)=C/[C@@]1(C)SC(=O)C(C)=C1O`, the IC50 was 10.4 µM.
`O=c1[nH]c(C2CCN(S(=O)(=O)c3ccc(S(=O)(=O)NC4CC4)cc3)CC2)nc2c1nnn2Cc1c(Cl)cccc1Cl` gave an IC50 of 27.5 µM.
In the case of `Cc1ccc(NC(=O)Nc2ccc(C)n(CC(=O)Nc3cccc(C)c3)c2=O)cc1`, the IC50 is reported as > 40 µM (inactive).
`Cc1cccc(OCC2=NN3C(=N)/C(=C\c4cc(C)n(-c5cccc(F)c5)c4C)C(=O)N=C3S2)c1` was tested, and the IC50 was > 40 µM (inactive).
For `O=C(Nc1ccc(Br)cc1F)c1ccc(S(=O)(=O)N2CCCC2)cc1`, the IC50 was > 40 µM (inactive).
For `COc1ccc(C2(c3nnc(C(C)Oc4ccc(F)cc4)o3)CCOCC2)cc1` (configuration not stated), the IC50 was > 40 µM (inactive).
`O=C(Cn1c(=O)n(Cc2ccc3c(c2)OCO3)c(=O)c2cccnc21)Nc1ccc(F)cc1` was tested, and the IC50 was > 40 µM (inactive).
`COc1ccccc1-c1noc(CCCC(=O)Nc2ccccc2)n1` was tested, and the IC50 was > 40 µM (inactive).
With `Cc1ccc2c(c1)N=C(c1ccc([N+](=O)[O-])cc1)CO2` the IC50 was > 40 µM (inactive).
For `COc1ccc(NS(=O)(=O)c2cc(NC(=O)/C=C/c3ccco3)ccc2N2CCCC2)cc1`, the IC50 was > 40 µM (inactive).
`CSc1cccc(NC(=O)c2cc(-c3cccnc3)n[nH]2)c1` was tested, and the IC50 was > 40 µM (inactive).
For `COc1ccc(-c2noc(CC(=O)Nc3cccc(OC)c3)n2)cc1`, the IC50 was > 40 µM (inactive).
`COc1ccc(NC(=O)CC(=O)c2ccc([N+](=O)[O-])cc2)cc1S(=O)(=O)Nc1ccc(Br)cc1` gave an IC50 of 22.9 µM.
With `COc1cccc2cc(C(=O)Nc3nc(-c4ccncc4)cs3)oc12` the IC50 was 9.63 µM.
`O=c1c2cc(Br)ccc2[nH]c(=S)n1Cc1cccnc1` was tested, and the IC50 was > 40 µM (inactive).
Work on `CCCCCCCc1cc(OC(=O)c2c(CCCCCCC)cc(O)cc2O[C@@H]2O[C@H](CO)[C@@H](O)[C@H](O)[C@H]2O)cc(O)c1C(=O)O` yielded an IC50 of 3.94 µM.
For `O=C(Nc1cccc(-c2nc3ncccc3o2)c1)c1ccc([N+](=O)[O-])cc1`, the IC50 was > 40 µM (inactive).
For `NS(=O)(=O)c1ccc(CNS(=O)(=O)/C=C/c2ccccc2)cc1`, the IC50 was > 40 µM (inactive).
`COc1ccc(NC(=O)[C@H](C)NC(=O)c2cc3c(OC)cccc3[nH]2)cc1Cl` was tested, and the IC50 was 37.9 µM.

Reference: PubChem BioAssay AID1645863 (Buhrlage Lab, Dana-Farber Cancer Institute and Novartis …, 2021)
